Columns and labels:
basilar artery = experiment: Cerebral vasospasm inhibition test on maxadilan (SEQ ID NO: 3) by cisterna puncture, angiography of the basilar artery; format: in vivo, Japanese white rabbit; conditions: aqueous solution, 7 μg per kg
From the text: Cerebral vasospasm inhibition test on maxadilan (SEQ ID NO: 3)
A Japanese white rabbit (male, weighing 2-3 kg) was subjected to general anesthesia by injection of sodium pentobarbital through the auricular vein. After the rabbit was retained so as not to move, the surroundings of the punctured vein were disinfected with sterilized ethanol, a self-retaining needle was punctured into the vein, and immediately thereafter, a silicone-made extension tube equipped, at one end, with a three way cock connected at the two ways with 10-ml syringes each containing physiological saline and connected at the residual way with a 10-ml syringe containing sodium pentobarbital was connected to the self-retaining needle (when the blood vessel is thin, the blood vessel is stimulated by fingers to dilate it). […]
A spot for angiography was determined by transillumination, the head was fast fixed, back flow of the blood was confirmed, and 0.8 ml of a contrast medium was injected under a certain pressure (2.3 kg/cm^2). […]
Groups of rabbits, one group consisting of 5 animals, were treated as mentioned above, and among them, rabbits were selected wherein when the basilar artery was divided, starting from the junction from the vertebral artery, into three equal parts, and the diameter at the middle point was measured, spasm occurred at a level of 18% or more. […]

[1] = relative to SEQ ID NO: 2; cited from earlier work

Which “Inhibition of spasm compared to the sterile water administration group” value (basilar artery; 3 days after blood injection) does the source give for “SEQ ID NO: 3: peptide wherein an amino acid sequence residue GSIL- is bonded to the N-terminus of SEQ ID NO: 1 maxadilan” here?
The value was “spasm was significantly inhibited”.

And the “Duration of significant inhibition of spasm (from immediately after the administration)” value (basilar artery; vs sterile water group)?
The value was “about 4 hours”.

And the “Vasodilative action (particularly, erythema activities), times higher than that of SEQ ID NO: 2” value [1]?
Its value is “about 10 times”.
